Like-named read-outs stand apart in the source and are kept apart here.
What was measured:
canine esophagus = assay: Esophageal irritation potential in a dog model (infusion into esophagus, histopathology); details: for Esophageal irritation potential: low dosages on consecutive days (Groups 7 and 8)
Experimental: The esophageal irritation potential of the bisphosphonates is evaluated using a dog model.
The following solutions are prepared:
(1) simulated gastric juice (pH about 2), i.e. the control solution.
(5) simulated gastric juice (pH about 2) containing about 0.20 mg/mL of risedronate sodium on a risedronic acid active basis.
(6) simulated gastric juice (pH about 2) containing about 4.0 mg/mL of tiludronate disodium on a tiludronic acid active basis.
The pH of the resulting solution is measured and if necessary is adjusted to about 2 using 1.0 M HCl (aqueous) or 1.0 M NaOH (aqueous).
The animals used in the experiments are anesthetized and administered about 50 mL of the appropriate solution over about 30 minutes by infusion into the esophagus using an infusion pump and a rubber catheter. The following treatment experiments are run:
Group 1: This control group contains four animals. Each animal is administered a dosage of about 50 mL of simulated gastric juice [solution (1)] on each of five consecutive days. The animals are sacrificed immediately after the last dose is administered. […]
Group 7: This group contains eight animals. Each animal is administered a dosage of about 50 mL of simulated gastric juice containing about 0.20 mg/mL of risedronate [solution (5)] on each of five consecutive days. The animals are sacrificed immediately after the last dose is administered.
Group 8: This group contains four animals. Each animal is administered a dosage of about 50 mL of simulated gastric juice containing about 4.0 mg/mL of tiludronate [solution (6)] on each of five consecutive days. The animals are sacrificed immediately after the last dose is administered.
The esophagus from each sacrificed animal is removed and prepared for histopathology using standard techniques by embedding the tissue in paraffin, staining with hematoxylin and eosin. The sections are examined microscopically.

esophagus = details: oral; literature; cited from earlier work
bone [1] = details: cited from earlier work
bone [2] = details: Mortensen et al. 1995; cited from earlier work
[3] = 0.20 mg/mL alendronate, 50 mL, 1x daily for 5 days, sacrifice immediately after last dosing (Group 2, n = 4), monosodium trihydrate
[4] = 0.40 mg/mL alendronate, 50 mL, 2x weekly for 4 weeks (Group 6, n = 6), sacrifice about four days after last dose, immediately (Table 1), monosodium trihydrate
[5] = 0.80 mg/mL alendronate, 50 mL, 1x weekly for a total of 4 doses, sacrifice 7 days after last dosing (Group 5, n = 6), monosodium trihydrate
[6] = 0.80 mg/mL alendronate, 50 mL, single dose, sacrifice 24 hours after dosing (Group 3, n = 5), monosodium trihydrate
[7] = 0.80 mg/mL alendronate, 50 mL, single dose, sacrifice 7 days after dosing (Group 4, n = 5), monosodium trihydrate
[8] = 0.20 mg/mL risedronate, 50 mL, 1x daily for 5 days, sacrifice immediately after last dosing (Group 7, n = 8)

Compound: NCCCC(O)(P(=O)(O)O)P(=O)(O)O [Alendronate, 4-amino-1-hydroxybutylidene-1,1-bisphosphonic acid monosodium trihydrate]
- Histopathology: esophageal epithelial surface (canine esophagus; [3]): deep ulceration of the epithelial surface
- Histopathology: submucosal inflammation and vacuolation (canine esophagus; [3]): marked submucosal inflammation and vacuolation
- Histopathology: esophageal epithelial surface (canine esophagus; [4]): deep ulceration of the epithelial surface
- Histopathology: submucosal inflammation and vacuolation (canine esophagus; [4]): marked submucosal inflammation and vacuolation
- Histopathology: vacuolation (canine esophagus; 0.80 mg/mL alendronate, 50 mL, 1x weekly for a total of 4 doses, sacrifice 7 days after last dosing (Group 5, n = 6)): no
- Histopathology: esophageal epithelium (canine esophagus; [5]): normal with an intact epithelium
- Histopathology: submucosal inflammation (canine esophagus; [5]): absence of inflammatory cells in the submucosa and no
- Histopathology: esophageal epithelial surface (canine esophagus; [6]): intact epithelial surface
- Histopathology: submucosal inflammation and vacuolation (canine esophagus; [6]): very slight submucosal inflammation and vacuolation
- Histopathology: esophageal epithelium (canine esophagus; [7]): intact epithelium
- Histopathology: vacuolation (canine esophagus; [7]): no vacuolation and no
- Adverse esophageal effects associated with use (esophagus): esophagitis and/or esophageal ulcers

Compound: CC(O)(P(=O)(O)O)P(=O)(O)O [Etidronate, 1-hydroxyethane-1,1-diphosphonic acid]
- Effect on bone mineralization (bone [1]; at doses used clinically): impairs mineralization
- Effect on bone mineralization (bone [1]; given daily for more than several days): decline in bone mineralization

Compound: NCCC(O)(P(=O)(O)O)P(=O)(O)O [Pamidronate, 3-amino-1-hydroxypropylidene-1,1-bisphosphonic acid]
- Adverse esophageal effects associated with use (esophagus): esophageal ulcers

Compound: O=P(O)(O)C(O)(Cc1cccnc1)P(=O)(O)O [Risedronate, 1-hydroxy-2-(3-pyridinyl)-ethylidene-1,1-bisphosphonic acid]
- Histopathology: animals with deep ulceration of epithelial surface (canine esophagus; [8]): 4 of 8 animals
- Histopathology: esophageal epithelial surface (canine esophagus; [8]): deep ulceration of the epithelial surface
- Histopathology: submucosal inflammation and vacuolation (canine esophagus; [8]): marked submucosal inflammation and vacuolation
- Esophageal irritation potential (canine esophagus): high
- Antiresorptive bone effect, cyclic versus continuous daily dosing (bone [2]): less effective than continuous daily dosing

Compound: O=P(O)(O)C(Sc1ccc(Cl)cc1)P(=O)(O)O [Tiludronate, (4-chlorophenyl)thiomethane-1,1-disphosphonic acid]
- Esophageal irritation potential (canine esophagus): high
